Experimental data reported in paper PMC10247784, “Physiological activation of human and mouse bitter taste receptors by bile acids” (Communications Biology, 2023).

Assays:
[1] = tested on: T2R02 of Latimeria chalumnae; design: method as in PMID 33355666; conditions: cited from earlier work
[2] = molecular target: T1, mouse Tas2r105 (Mus musculus, UniProt Q9JKT4); assay: Calcium imaging assay (FLIPR), HEK293T-Gα16gust44 cells transfected with mouse Tas2r105; assay type: cell-based
T1 construct: expressed in transfected cells; host or cells: HEK293T-Gα16gust44
T1 sequence (Q9JKT4 1-300): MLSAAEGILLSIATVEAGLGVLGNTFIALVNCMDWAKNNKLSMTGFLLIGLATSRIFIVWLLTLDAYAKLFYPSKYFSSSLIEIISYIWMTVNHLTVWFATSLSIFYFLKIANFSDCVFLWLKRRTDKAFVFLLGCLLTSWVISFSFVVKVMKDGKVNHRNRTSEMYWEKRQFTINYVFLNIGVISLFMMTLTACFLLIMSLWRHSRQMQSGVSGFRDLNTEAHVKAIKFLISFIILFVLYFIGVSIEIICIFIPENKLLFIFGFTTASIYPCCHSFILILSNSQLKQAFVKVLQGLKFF
Method: This set of bile acids was chosen because of their commercial availability in high purities, their diversity within the class of bile acids and their previous detection and quantitation in human blood. Stock solutions were prepared in DMSO.
As basal growth medium for the HEK293T-Gα16gust44 cell line[17],[59] served Dulbecco’s modified eagle medium (DMEM) (Thermo Fisher Scientific, Darmstadt, Germany) supplemented with 10 % fetal bovine serum (Sigma-Aldrich, Steinheim, Germany), 2 mM L-glutamine (Sigma-Aldrich, Steinheim, Germany), 100 units/ml penicillin (Sigma Aldrich, Steinheim, Germany) and 100 µg/ml streptomycin (Sigma Aldrich, Steinheim, Germany). Growth conditions were 37 °C, 5 % CO2 and saturated air-humidity[60].
HEK293T-Gα16gust44 cells were seeded on poly-D-lysine (10 µg/ml) coated 96-well plates to reach a confluence of 40-60 % the next day. For transient transfection 150 ng of plasmid DNA containing the receptor of interest and 0.3 µl lipofectamine 2000 (Thermo Fisher Scientific, Darmstadt, Germany) per well were used and transfection took place according to the manual of lipofectamine 2000. […] The empty vector DNA (mock) was transfected as negative control[14],[41].
Cells were loaded using the calcium-sensitive fluorescent dye Fluo-4-AM (Abcam, Cambridge, Great Britain) in the presence of 2.5 mM probenecid (Sigma-Aldrich, Steinheim, Germany) the day after transfection[13],[41]. 1 h after loading, cells were washed with C1 buffer using a BioTek Cell Washer, incubated in the dark for half an hour and washed again. For automated agonist application and measurement of fluorescence changes, a FLIPR^TETRA device (Molecular Devices, San José, United States) was used. Viability of cells was tested by application of 100 nM Somatostatin 14 (Bachem, Bubendorf, Switzerland)[42].
Measured data were negative control corrected by subtracting the signal of the mock-transfected cells and exported to Microsoft Excel using the FLIPR software ScreenWorks 4.2. In Microsoft Excel software, standardization of maximum fluorescence intensities to the basal fluorescence and normalization to the buffer-only control was done to calculate the relative fluorescence changes (ΔF/F).
Initial screening experiments performed in duplicate wells were confirmed by at least one replication and representative traces were selected for display. All dose-response relationships were determined by three independent experiments (biological replicates) performed in duplicates (technical replicates). Threshold concentrations, defined as lowest substance concentrations leading to statistically significant elevated fluorescence changes in receptor-transfected cells compared with empty vector-transfected cells, were determined using SigmaPlot with Student’s t-test to evaluate statistical significance (p < 0.01).

For `C[C@H](CCC(=O)O)[C@H]1CC[C@H]2[C@@H]3[C@H](O)C[C@@H]4C[C@H](O)CC[C@]4(C)[C@H]3CC[C@]12C` [Chenodeoxycholic Acid, chenodeoxycholic acid], the “Activation of T2R02” value [1] is given as “activate”.
For `C[C@H](CCC(=O)O)[C@H]1CC[C@H]2[C@@H]3CC[C@@H]4C[C@H](O)CC[C@]4(C)[C@H]3CC[C@]12C` [Lithocholic Acid, lithocholic acid], the RLU ([2]; Time 0 s) was 0 RLU, the RLU ([2]; Time 2 s) was -19.9183 RLU and the RLU ([2]; Time 4 s) was 19.2865 RLU. It also gave an RLU ([2]; Time 6 s) of -6.64 RLU, an RLU ([2]; Time 8 s) of 9.805 RLU and an RLU ([2]; Time 12 s) of 17.7969 RLU. It also gave an RLU ([2]; Time 14 s) of 8.271 RLU, an RLU ([2]; Time 16 s) of -2.182 RLU and an RLU ([2]; Time 18 s) of 5.571 RLU. The RLU ([2]; Time 18.781 s) was 8.9 RLU, the RLU ([2]; Time 20.781 s) was -20.4639 RLU and the RLU ([2]; Time 22.781 s) was -20.313 RLU. The RLU ([2]; Time 24.781 s) was 13.8358 RLU, the RLU ([2]; Time 26.781 s) was 13.4767 RLU and the RLU ([2]; Time 28.781 s) was 5.266 RLU. For the same compound, the RLU ([2]; Time 30.781 s) was -9.837 RLU, the RLU ([2]; Time 32.781 s) was 8.574 RLU and the RLU ([2]; Time 34.781 s) was 27.1912 RLU. It also gave an RLU ([2]; Time 36.781 s) of 18.0239 RLU, an RLU ([2]; Time 38.781 s) of 6.659 RLU and an RLU ([2]; Time 40.781 s) of 53.7499 RLU. The RLU ([2]; Time 42.781 s) was 49.1517 RLU, the RLU ([2]; Time 44.781 s) was 47.3635 RLU and the RLU ([2]; Time 46.781 s) was 50.4831 RLU. It also gave an RLU ([2]; Time 48.781 s) of 74.4289 RLU, an RLU ([2]; Time 50.781 s) of 93.6056 RLU and an RLU ([2]; Time 52.781 s) of 63.4969 RLU. It also gave an RLU ([2]; Time 54.781 s) of 82.9174 RLU, an RLU ([2]; Time 56.781 s) of 91.8724 RLU and an RLU ([2]; Time 58.781 s) of 82.9428 RLU. For the same compound, the RLU ([2]; Time 60.781 s) was 110.605 RLU, the RLU ([2]; Time 62.781 s) was 104.538 RLU and the RLU ([2]; Time 64.781 s) was 112.529 RLU. It also gave an RLU ([2]; Time 66.781 s) of 137.104 RLU, an RLU ([2]; Time 68.781 s) of 132.36 RLU and an RLU ([2]; Time 70.781 s) of 132.904 RLU. It also gave an RLU ([2]; Time 72.781 s) of 132.041 RLU, an RLU ([2]; Time 74.781 s) of 144.653 RLU and an RLU ([2]; Time 76.781 s) of 172.509 RLU. It also gave an RLU ([2]; Time 78.781 s) of 142.279 RLU, an RLU ([2]; Time 80.781 s) of 151.243 RLU and an RLU ([2]; Time 82.781 s) of 167.63 RLU. It also gave an RLU ([2]; Time 84.781 s) of 195.966 RLU, an RLU ([2]; Time 86.781 s) of 203.204 RLU and an RLU ([2]; Time 88.781 s) of 204.712 RLU. For the same compound, the RLU ([2]; Time 90.781 s) was 215.59 RLU, the RLU ([2]; Time 92.781 s) was 209.022 RLU and the RLU ([2]; Time 94.781 s) was 228.864 RLU. It also gave an RLU ([2]; Time 96.781 s) of 184.288 RLU, an RLU ([2]; Time 98.781 s) of 227.541 RLU and an RLU ([2]; Time 100.781 s) of 248.863 RLU. The RLU ([2]; Time 102.781 s) was 222.595 RLU, the RLU ([2]; Time 104.781 s) was 217.502 RLU and the RLU ([2]; Time 106.781 s) was 225.971 RLU. For the same compound, the RLU ([2]; Time 108.781 s) was 244.356 RLU, the RLU ([2]; Time 110.781 s) was 261.979 RLU and the RLU ([2]; Time 112.781 s) was 241.216 RLU. It also gave an RLU ([2]; Time 114.781 s) of 243.367 RLU, an RLU ([2]; Time 116.781 s) of 246.887 RLU and an RLU ([2]; Time 118.781 s) of 257.566 RLU. The RLU ([2]; Time 120.781 s) was 260.092 RLU, the RLU ([2]; Time 122.781 s) was 284.505 RLU and the RLU ([2]; Time 124.781 s) was 270.165 RLU. The RLU ([2]; Time 126.781 s) was 278.83 RLU, the RLU ([2]; Time 128.781 s) was 309.382 RLU and the RLU ([2]; Time 130.781 s) was 309.382 RLU. For the same compound, the RLU ([2]; Time 132.781 s) was 310.252 RLU, the RLU ([2]; Time 134.781 s) was 282.326 RLU and the RLU ([2]; Time 136.781 s) was 279.582 RLU. It also gave an RLU ([2]; Time 137.562 s) of 296.261 RLU, an RLU ([2]; Time 143.562 s) of 310.291 RLU and an RLU ([2]; Time 149.562 s) of 291.585 RLU. It also gave an RLU ([2]; Time 155.562 s) of 301.792 RLU, an RLU ([2]; Time 161.562 s) of 299.079 RLU and an RLU ([2]; Time 167.562 s) of 303.398 RLU. The RLU ([2]; Time 173.562 s) was 315.378 RLU, the RLU ([2]; Time 179.562 s) was 314.187 RLU and the RLU ([2]; Time 185.562 s) was 308.746 RLU. It also gave an RLU ([2]; Time 191.562 s) of 287.017 RLU, an RLU ([2]; Time 197.562 s) of 315.242 RLU and an RLU ([2]; Time 203.562 s) of 299.639 RLU. It also gave an RLU ([2]; Time 209.562 s) of 295.067 RLU, an RLU ([2]; Time 215.562 s) of 316.647 RLU and an RLU ([2]; Time 221.562 s) of 272.857 RLU. The RLU ([2]; Time 227.562 s) was 314.132 RLU, the RLU ([2]; Time 233.562 s) was 269.771 RLU and the RLU ([2]; Time 239.562 s) was 270.901 RLU. For the same compound, the RLU ([2]; Time 245.562 s) was 241.175 RLU, the RLU ([2]; Time 293.562 s) was 236.399 RLU and the RLU ([2]; Time 299.562 s) was 209.696 RLU. It also gave an RLU ([2]; Time 305.562 s) of 212.529 RLU, an RLU ([2]; Time 311.562 s) of 180.625 RLU and an RLU ([2]; Time 317.562 s) of 178.726 RLU. The RLU ([2]; Time 323.562 s) was 162.84 RLU, the RLU ([2]; Time 329.562 s) was 185.237 RLU and the RLU ([2]; Time 335.562 s) was 178.412 RLU. For the same compound, the RLU ([2]; Time 341.562 s) was 163.583 RLU, the RLU ([2]; Time 347.562 s) was 148.887 RLU and the RLU ([2]; Time 353.562 s) was 153.613 RLU. The RLU ([2]; Time 359.562 s) was 155.912 RLU and the “Activation threshold concentration Tas2r105” value ([2]; p < 0.01 vs empty vector) was 3 µM.
With `C[C@H](CCC(=O)NCCS(=O)(=O)O)[C@H]1CC[C@H]2[C@@H]3[C@H](O)C[C@@H]4C[C@H](O)CC[C@]4(C)[C@H]3C[C@H](O)[C@]12C` [Taurocholic Acid, taurocholic acid] the “Receptor response Tas2r105” value ([2]; screening) was “lack of taurocholic acid responsiveness”.
For `C[C@H](CCC(=O)NCCS(=O)(=O)O)[C@H]1CC[C@H]2[C@@H]3CC[C@@H]4C[C@H](O)CC[C@]4(C)[C@H]3CC[C@]12C` [Taurolithocholic Acid, taurolithocholic acid], the “Activation of T2R02” value [1] is listed as “activate”.
